Measured values taken from ChEMBL document CHEMBL1123744, “A quantitative structure-activity relationship analysis of some 4-aminodiphenyl sulfone antibacterial agents using linear free energy and molecular modeling methods” (J Med Chem, 1987).

Tested on: Mycobacterium lufu
Test: In vitro inhibition of Mycobacterium lufu dihydopterate synthase.

## Nc1ccc(S(=O)(=O)c2ccc(N)cc2)cc1
  pC: 5.92

## Nc1ccc(S(=O)(=O)c2ccccc2[N+](=O)[O-])cc1
  pC: 5.61

## CCNc1ccc(S(=O)(=O)c2ccc(N)cc2)c(O)c1
  pC: 6.14

## Nc1ccc(S(=O)(=O)c2ccccc2N)cc1
  pC: 5.65

## CN(C)c1ccc(S(=O)(=O)c2ccc(N)cc2)cc1
  pC: 5.75

## CCCCNc1ccc(S(=O)(=O)c2ccc(N)cc2)c(OC)c1
  pC: 5.99

## CCNc1ccc(S(=O)(=O)c2ccc(N)cc2)cc1
  pC: 5.56

## Nc1ccc(S(=O)(=O)c2ccc([N+](=O)[O-])cc2N)cc1
  pC: 4.93

## N#Cc1cc(N)ccc1S(=O)(=O)c1ccc(N)cc1
  pC: 5.65

## Nc1ccc(S(=O)(=O)c2ccc(N)c(O)c2)cc1
  pC: 6.07

## Cc1ccc(S(=O)(=O)c2ccc(N)cc2)cc1
  pC: 5.09

## NNC(=O)c1ccc(S(=O)(=O)c2ccc(N)cc2)cc1
  pC: 4.9

## Nc1ccc(S(=O)(=O)c2ccc([N+](=O)[O-])cc2)cc1
  pC: 4.51

## COc1cc(N)ccc1S(=O)(=O)c1ccc(N)cc1
  pC: 5.73

## CC(=O)Nc1ccc(S(=O)(=O)c2ccc(N)cc2)cc1
  pC: 5.15

## Nc1ccc(S(=O)(=O)c2ccc(N)cc2Cl)cc1
  pC: 6.32

## CCCNc1ccc(S(=O)(=O)c2ccc(N)cc2)c(O)c1
  pC: 5.71

## Nc1ccc(S(=O)(=O)c2ccc(Cl)cc2)cc1
  pC: 4.89

## CNc1ccc(S(=O)(=O)c2ccc(N)cc2)cc1
  pC: 5.89

## Nc1ccc(S(=O)(=O)c2ccccc2)cc1
  pC: 4.92

## CCCNc1ccc(S(=O)(=O)c2ccc(N)cc2)cc1O
  pC: 5.64

## COC(=O)c1ccc(S(=O)(=O)c2ccc(N)cc2)cc1
  pC: 4.93

## COc1ccc(S(=O)(=O)c2ccc(N)cc2)cc1
  pC: 5.12

## CCNc1ccc(S(=O)(=O)c2ccc(N)cc2)cc1OC
  pC: 5.49

## COc1cc(S(=O)(=O)c2ccc(N)cc2)ccc1N
  pC: 5.56

## CCCNc1ccc(S(=O)(=O)c2ccc(N)cc2)cc1OC
  pC: 5.4

## Nc1ccc(S(=O)(=O)c2ccc(N)cc2[N+](=O)[O-])cc1
  pC: 5.87

## Nc1ccc(S(=O)(=O)c2ccc(C(=O)O)cc2)cc1
  pC: 5.44

## CCNc1ccc(S(=O)(=O)c2ccc(N)cc2)cc1O
  pC: 5.7

## CCNc1ccc(S(=O)(=O)c2ccc(N)cc2)c(OC)c1
  pC: 5.75

## Nc1ccc(S(=O)(=O)c2ccc(O)cc2)cc1
  pC: 5.82

## COC(=O)CNc1ccc(S(=O)(=O)c2ccc(N)cc2)cc1
  pC: 5.65

## Nc1ccc(S(=O)(=O)c2ccc(NCC(=O)O)cc2)cc1
  pC: 6.06

## CCCNc1ccc(S(=O)(=O)c2ccc(N)cc2)c(OC)c1
  pC: 5.92

## Cc1cc(N)ccc1S(=O)(=O)c1ccc(N)cc1
  pC: 6.19

## Nc1ccc(S(=O)(=O)c2ccc(N)cc2N)cc1
  pC: 5.99
